Measurements as given in patent US11077078B2, “Compositions and methods for the treatment of cancer” (KoDiscovery, LLC, priority 2006, dated 2021).

What was measured:
metastatic lung tumors = test: Metastatic lung cancer study in rabbits, IP port delivery (FIG. 4); details: dissected lungs
liver cancer cells = test: Photographs of liver cancer cells treated with 3BP (FIG. 2); type: cell-based
Description: The presently disclosed cellular energy inhibitors, shown as 3-bromopyruvate (3BP) (a lactic acid analog) in FIG. 1, are small chemicals and can mimic the lactic acid chemical structure; depicted as a small diamond in FIG. 1. Therefore, cellular energy inhibitors disguised as lactic acid can “trick” the cancer cells and enter like a Trojan horse (FIG. 1). The inhibitors have little effect on normal cells as these contain very few lactic acid transporters. Because of the present cellular energy inhibitors' highly reactive nature, it can destroy the two energy production factories (FIG. 1; one diamond above the hexokinase (HK), shown as 3BP is destroying one energy production factory, i.e., glycolysis, and another red diamond inside the mitochondrion means that 3BP is destroying also this energy production factory). As a result, the cellular energy (ATP) can be depleted very rapidly by cellular energy inhibitors; 3BP in FIG. 1, attack the two factories at the same time causing the cancer cells to rapidly explode (cell membrane rupturing). […] Here, the healthy cancer cells are round and iridescent (left picture).

[1] = system: human prostate cancer cells; test: Cell viability/proliferation of human prostate cancer cells vs various anti-cancer agents (FIG. 9); type: cell-based
Description: The anti-cancer compositions described herein can be used to treat any cancer having increased glycolysis; the metabolic phenotype referred to as the “Warburg Effect”, as described above. In another embodiment, the anti-cancer compositions can be used to treat any cancer that can be detected by Positron Emission Tomography (PET), which detects this metabolic phenotype. For example, FIG. 5 illustrates a reaction scheme for PET scanning. Human cancer cell lines that the present anti-cancer composition has shown to be effective against include liver, cervical, ovarian, lung, breast, colon, neuroblastoma, medulloblastoma, prostate, skin, pancreatic, childhood fibrolamellar hepatocellular carcinoma (FHCC), hepatocellular carcinoma (HCC), non small cell lung cancer. For example, FIG. 9 depicts a bar graph showing various cancer drugs effects on human prostate cancer cells. […] As such, the present cancers that can be treated with the present anti-cancer compositions can be selected from the group consisting of liver, cervical, ovarian, lung, breast, colon, neuroblastoma, medulloblastoma, prostate, skin, pancreatic, childhood fibrolamellar hepatocellular carcinoma (FHCC), hepatocellular carcinoma (HCC), non small cell lung cancer. […]

[2] = system: Hepatocellular carcinoma cells; test: Rat hepatocellular carcinoma study: cancer cell viability vs μM of anti-cancer agents (FIG. 3); details: 23 hour period; 3-bromopyruvate with as little as 20 μM

O=C(O)C(=O)CBr [3-Bromopyruvate, 3-bromopyruvate]
metastatic lung cancer after treatment (metastatic lung tumors): no metastatic lung cancer
cell morphology / death after treatment (liver cancer cells): the cell membranes rupture
stopping cancer cell proliferation vs other known chemo-agents [1]: better than other known chemo-agents in stopping cancer cell proliferation
cell viability [2]: approx. 5%
